Here are results for 6 molecules from patent publication US12037458B2, “Process and premix for incorporating optical brighteners into a polymeric composition” (Elkem Silicones USA Corp., priority 2019, dated 2024).

Data set [1] can be described thus: Solubility of Tinopal OB CO in different silanes / titanate (room-temperature mixing, black light inspection). The settings on record: for Forms a clear solution? / Amount of undissolved Tinopal ® OB CO: 0.072 g Tinopal OB CO in 10 g of compound; for Forms a clear solution?: mixed at room temperature, stored overnight; for Amount of undissolved Tinopal ® OB CO: room temperature; for # of particles observed: OBA particles, naked eye under black light; for Brightness: drop of mixture between glass plates under black light; for Solubility of Tinopal OB CO in the compound (in words): summary of Table 2.

Data set [2] in a line: Solubility of different optical brighteners in GLYMO, heated mixing (MM2). Format: physicochemical. The settings on record: for # of particles observed MM2 / Amount of undissolved OBA MM2 / Brightness MM2 / Form a clear solution? Mixing Method 2: in GLYMO; for # of particles observed MM2 / Amount of undissolved OBA MM2 / Brightness MM2: heated mixing 50° C. (MM2); for Form a clear solution? Mixing Method 2: heated mixing 50° C. under nitrogen (MM2).

Data set [3] can be described thus: Saturation of optical brightener in GLYMO. Type of data set: physicochemical. The procedure: To determine the saturation level of optical brightener in GLYMO, increasing amounts of Tinopal® OB CO were mixed with GLYMO (0.25%, 0.5%, 1.0%, 2.0%, 3.0% Tinopal® OB CO), heated at 50° C. for one hour and then cooled while mixing.
A short description of data set [4]: Solubility of different optical brighteners in GLYMO, RT mixing (MM1).
Where [5] appears, read: heated at 50° C. for one hour, cooled while mixing.

`C=C[Si](OC)(OC)OC` [VTMO, vinyltrimethoxysilane]: in data set [1], the “Forms a clear solution?” value is given as “Yes”, the “Amount of undissolved Tinopal ® OB CO” value is listed as “low”, the “# of particles observed” value came out at 0 and the Brightness result is “high”. Besides, the “Solubility of Tinopal OB CO in the compound (in words)” value in data set [1] is “relatively good solubility”.
In the case of `CC(C)(C)c1ccc2oc(-c3ccc(-c4nc5cc(C(C)(C)C)ccc5o4)s3)nc2c1` [Tinopal ® OB CO], in data set [2] (MM2 versus MM1), the “Effect of heating (MM2) on solubility in GLYMO” value is reported as “improved the solubility”. Besides, in data set [2], the “# of particles observed MM2” value was “zero”, the “Amount of undissolved OBA MM2” value is given as “Zero”, the “Brightness MM2” value is on record as “high” and the “Form a clear solution? Mixing Method 2” value is on record as “Yes”. Besides, the “Amount of undissolved OBA MM2” value in data set [2] (listed as Tinopal® OB CO) is “no undissolved particles”. In addition, in data set [3] (setting [5]), the “Concentration in GLYMO at which homogenously distributed” value is on record as “less than 1.0%” and the “Concentration in GLYMO at which visible particles (agglomerates) were present” value is at least 1.0%. Moreover, the “Average particle size of visible particles (agglomerates)” value in data set [3] (in GLYMO at concentrations of 1.0% or greater) is listed as at least 50 μm. In addition, the “Amount of undissolved OBA MM1” value in data set [4] (in GLYMO, RT mixing (MM1)) was “low”. Besides, the “Amount of undissolved optical brightener” value in data set [4] (in GLYMO, room temperature) is recorded as “low”.
In the case of `O=S(=O)(O)c1ccccc1C=Cc1ccc(-c2ccc(C=Cc3ccccc3S(=O)(=O)O)cc2)cc1` [Benetex ® OB-M1, benzenesulfonic acid, 2,2′-([1,1′-biphenyl]-4,4′-diyldi-2,1-ethenediyl)bis-], in data set [2], the “# of particles observed MM2” value is over 100, the “Brightness MM2” value is given as “low” and the “Form a clear solution? Mixing Method 2” value is “no”.
Turning to `CCN(CC)c1nc(Nc2ccc(C=Cc3ccc(Nc4nc(Nc5cc(S(=O)(=O)[O-])ccc5S(=O)(=O)[O-])nc(N(CC)CC)n4)cc3S(=O)(=O)[O-])c(S(=O)(=O)[O-])c2)nc(Nc2cc(S(=O)(=O)[O-])ccc2S(=O)(=O)[O-])n1.[Na+].[Na+].[Na+].[Na+].[Na+].[Na+]` [Tinopal ® SFP], in data set [2], the “# of particles observed MM2” value is 10-20, the “Amount of undissolved OBA MM2” value is recorded as “Low”, the “Brightness MM2” value was “low” and the “Form a clear solution? Mixing Method 2” value is on record as “No”. Further, the “Forms a clear solution?” value in data set [4] (0.072 g optical brightener in 10 g GLYMO, room temperature) is “No”. Besides, in data set [4] (in GLYMO, RT mixing (MM1)), the “# of particles observed MM1” value was over 300, the “Amount of undissolved OBA MM1” value is on record as “high”, the “Brightness MM1” value is on record as “low” and the “Form a clear solution? Mixing Method 1” value was “no”. Also, in data set [4] (in GLYMO, naked eye under black light), the “# of particles observed” value is given as over 300. The “Amount of undissolved optical brightener” value in data set [4] (in GLYMO, room temperature) is reported as “high”. For the same molecule, the Brightness entry in data set [4] (in GLYMO, under black light) was “low”.
As to `C(=Cc1ccc(-c2nc3ccccc3o2)cc1)c1ccc(-c2nc3ccccc3o2)cc1` [Benetex ® OB-1 HP, benzoxazole, 2,2′-(1,2-ethenediyldi-4,1-phenylene)bis-], in data set [2], the “# of particles observed MM2” value is on record as over 300, the “Brightness MM2” value is “high” and the “Form a clear solution? Mixing Method 2” value was “no”.
On to `C=C(C)C(=O)OCCC[Si](OC)(OC)OC` [MEMO], for which, in data set [1], the “Forms a clear solution?” value is on record as “Yes”, the “Amount of undissolved Tinopal ® OB CO” value is reported as “zero”, the “# of particles observed” value is reported as 0 and the Brightness result is recorded as “high”. Besides, in data set [1], the “Solubility of Tinopal OB CO in the compound (in words)” value is listed as “relatively good solubility”.
